Data reported in ChEMBL document CHEMBL1201862, “PubChem BioAssay data set” (2004).
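Protocol summary: plate cells (96-well), add compound at 5 concentrations, incubate 48 h, interpolate endpoints linearly. GI50 is the concentration that inhibits growth by half.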 Active and inactive are the calls of the source. Cut-off read from the data, not from the text of the source: active = GI50 up to about 1.1 µM and inactive = higher.

Key:
Assay in all cases: NCI tumour cell line growth inhibition, 48 h
NCI-H226 = tested on: NCI-H226
A498 = tested on: A498
ACHN = tested on: ACHN
U-251 = tested on: U-251
UO-31 = tested on: UO-31
UACC-62 = tested on: UACC-62
TK-10 = tested on: TK-10
IGROV-1 = tested on: IGROV-1
Hs-578T = tested on: Hs-578T
HCC 2998 = tested on: HCC 2998
SK-MEL-2 = tested on: SK-MEL-2
HCT-116 = tested on: HCT-116
SF-268 = tested on: SF-268
Malme-3M = tested on: Malme-3M
SK-MEL-5 = tested on: SK-MEL-5
RXF 393 = tested on: RXF 393
786-0 = tested on: 786-0
SN12C = tested on: SN12C
SF-539 = tested on: SF-539

SMILES	GI50 (NCI-H226)	GI50 (A498)	GI50 (ACHN)	GI50 (U-251)	GI50 (UO-31)	GI50 (UACC-62)	GI50 (TK-10)	GI50 (IGROV-1)	GI50 (Hs-578T)	GI50 (HCC 2998)	GI50 (SK-MEL-2)	GI50 (HCT-116)	GI50 (SF-268)	GI50 (Malme-3M)	GI50 (SK-MEL-5)	GI50 (RXF 393)	GI50 (786-0)	GI50 (SN12C)	GI50 (SF-539)
C[C@]12CCC(=O)C=C1C[C@@H](O)[C@@H]1[C@@H]2CC[C@@]2(C)[C@H]1CC[C@]2(C)O	> 100 µM (inactive)	> 100 µM (inactive)	> 100 µM (inactive)	> 100 µM (inactive)	> 100 µM (inactive)	> 100 µM (inactive)	> 100 µM (inactive)	> 100 µM (inactive)	> 100 µM (inactive)	> 100 µM (inactive)	> 100 µM (inactive)	> 100 µM (inactive)	> 100 µM (inactive)	> 100 µM (inactive)	> 100 µM (inactive)	> 100 µM (inactive)	> 100 µM (inactive)	> 100 µM (inactive)	–
COc1ccc2cc(C(=O)NCCCNC(=O)c3ccc4cc(OC)ccc4c3)ccc2c1	49.4 µM (inactive)	44.8 µM (inactive)	33.7 µM (inactive)	21.1 µM (inactive)	> 75.7 µM (inactive)	> 100 µM (inactive)	45.4 µM (inactive)	39.4 µM (inactive)	34.2 µM (inactive)	> 100 µM (inactive)	> 75.3 µM (inactive)	> 86.7 µM (inactive)	23.9 µM (inactive)	> 100 µM (inactive)	> 100 µM (inactive)	15.8 µM (inactive)	19.6 µM (inactive)	> 49.9 µM (inactive)	3.94 µM (inactive)
Cc1cc(N(CCC#N)CCC#N)ccc1/C=C1N=C(/C=C\c2ccccc2)N(c2ccc(Cl)cc2)C\1=O	> 100 µM (inactive)	> 100 µM (inactive)	8.32 µM (inactive)	> 28.6 µM (inactive)	7.36 µM (inactive)	0.746 µM (active)	> 53.3 µM (inactive)	47.3 µM (inactive)	> 100 µM (inactive)	1.81 µM (inactive)	> 54.8 µM (inactive)	6.76 µM (inactive)	> 22 µM (inactive)	17.7 µM (inactive)	0.43 µM (active)	> 100 µM (inactive)	54.8 µM (inactive)	> 45 µM (inactive)	6.71 µM (inactive)
COc1cc(C2c3cc4c(cc3OC(NNS(=O)(=O)c3ccc(C)cc3)C2C)OCO4)cc(OC)c1OC (configuration not stated)	3.14 µM (inactive)	1.26 µM (inactive)	3 µM (inactive)	2.14 µM (inactive)	5.14 µM (inactive)	1.36 µM (inactive)	6.7 µM (inactive)	2.68 µM (inactive)	1.26 µM (inactive)	2.94 µM (inactive)	0.984 µM (active)	1.29 µM (inactive)	3.95 µM (inactive)	3.04 µM (inactive)	0.883 µM (active)	1.76 µM (inactive)	7.76 µM (inactive)	4.21 µM (inactive)	0.984 µM (active)
COc1ccc(/C=N/NS(=O)(=O)c2ccc(/C=C3\NC(=O)NC3=O)cc2)cc1	> 100 µM (inactive)	> 100 µM (inactive)	> 100 µM (inactive)	45.2 µM (inactive)	> 100 µM (inactive)	> 100 µM (inactive)	> 100 µM (inactive)	87.5 µM (inactive)	28.1 µM (inactive)	> 100 µM (inactive)	> 100 µM (inactive)	> 100 µM (inactive)	28.1 µM (inactive)	> 100 µM (inactive)	> 100 µM (inactive)	> 100 µM (inactive)	47.1 µM (inactive)	> 100 µM (inactive)	–
CC(C)=CCNc1nc(Cl)nc2[nH]cnc12	> 100 µM (inactive)	44 µM (inactive)	54.1 µM (inactive)	–	37.4 µM (inactive)	> 100 µM (inactive)	71.6 µM (inactive)	> 100 µM (inactive)	62.8 µM (inactive)	> 100 µM (inactive)	–	24.7 µM (inactive)	55 µM (inactive)	86.9 µM (inactive)	29.3 µM (inactive)	25.2 µM (inactive)	49.4 µM (inactive)	57.7 µM (inactive)	> 100 µM (inactive)
O=C(Nc1ccc(Cl)cc1C(F)(F)F)C(=O)Nn1c(S)nc2ccccc2c1=O	> 100 µM (inactive)	> 100 µM (inactive)	> 100 µM (inactive)	> 100 µM (inactive)	> 100 µM (inactive)	> 100 µM (inactive)	> 100 µM (inactive)	–	> 100 µM (inactive)	> 100 µM (inactive)	> 100 µM (inactive)	> 100 µM (inactive)	> 100 µM (inactive)	–	> 100 µM (inactive)	> 100 µM (inactive)	> 100 µM (inactive)	> 100 µM (inactive)	> 100 µM (inactive)
